This note sets out measurements from patent US12565515B2, “1,2,4-oxadiazole compounds as inhibitors of CD47 signalling pathways” (AURIGENE ONCOLOGY LIMITED, priority 2018, dated 2026).

Molecules are shown by their SMILES.

The test system of the first assay is luciferase expressing Raji cells. Kind of assay: Luciferase based phagocytosis assay. The format is cell-based. The settings on record: human monocyte-derived macrophages, luminescence, read-out: % normalized phagocytosis (at 10 μM). The protocol:
(§1) DPBS (Gibco), RPMI 1640 WITH HEPES AND L-GLN-500 ML (Lonza), Recombinant Human M-CSF (R& D systems), CD47 Monoclonal Antibody (B6H12), Functional Grade antibody (Ebioscience), Mouse IgG1 kappa Isotype Control, Functional Grade (Ebioscience), Vacutainer (multiple sample luer adapter) (BD), Vacutainer (sodium heparin (NH) 158USP units, Blood collection tubes (BD), Histopaque (density—1.077 gm/ml) (SIGMA 1077), Trypan Blue solution (SIGMA-T8154), Hemacytometer (Bright line-SIGMA Z359629), Scalp vein infusion set (JMS), Cell Dissociation buffer (Gibco), 48-well sterile flat bottom plates (Corning), Luciferase expressing Raji cells (Generated in house by trasfection of luciferase gene in Raji cells) Luminometer, Hygromycin B (Invitrogen), Bright Glo luciferase assay system (Promega), 96 well plate, polystyrene, high band, white flat bottom wells (Sigma CLS3912), APC anti-mouse/human CD11b Antibody (Biolegend), H929 cells, CFSE (Ebioscience), Fetal Bovine Serum (Gibco Cat #: 10437028), Round-Bottom FACs Tubes (BD), Flowcytometer BD FACS Verse, 96 well plates, ultra-low attachment (Corning).
In vitro phagocytosis assay was performed to evaluate the ability of test item to enhance the phagocytic activity of macrophages. Monocytes were isolated from blood of healthy donor and cultured for 6-8 days using 10% RPMI (Roswell Park Memorial Institute) media and recombinant human M-CSF to differentiate into macrophages. Media was changed every alternate day. After differentiation, adherent macrophages were collected by gentle scraping and cultured in 10% RPMI overnight at a density of 0.1 million per well in 48 well tissue culture plate. Simultaneously, luciferase expressing Raji cells were cultured in 10% RPMI media with 100 μg/mL of hygromycin B in tissue culture flask. On the day of phagocytosis, macrophages were serum starved for 2 hours. 0.4 million luciferase expressing Raji cells per well were incubated with anti human CD47 purified B6H12 or Mouse IgG1 K Isotype Control antibody or various concentrations of test item in serum free media for 30 min at 37° C. and added into respective well of the 48 well plate seeded with macrophages. After 2 hours, cells were washed twice with PBS and 100 μL of serum free RPMI was added to each well. Additionally, 50 μL Bright Glow reagent was added to each well followed by mixing of cells and incubated for 5 min in dark. Luminescence reading was taken using plate reader after transferring the content of each well to white plate. Intensity of luminescence indicated the extent of phagocytosis. Each experimental condition was carried out in duplicate.
As for `NCCCC[C@H](N)c1noc([C@H](CCC(N)=O)NC(=O)N2CCC[C@H]2C(=O)O)n1` [Compound 1, (((S)-4-amino-1-(3-((S)-1,5-diaminopentyl)-1,2,4-oxadiazol-5-yl)-4-oxobutyl)carbamoyl)-L-proline], the activation at 10 µM is 39%.
As for `N=C(N)NCCC[C@H](NC(=O)N1CCCC1C(=O)O)c1nc([C@@H](N)CCC(=O)O)no1` (stereo partly drawn) [Compound 3], the activation at 10 µM was 42%.
The same measure, in the same setting: the value for `N=C(N)NCCC[C@H](N)c1noc([C@H](CCC(=O)O)NC(=O)N[C@@H](Cc2ccccc2)C(=O)O)n1` [Compound 7, (S)-4-(3-((S)-1-amino-4-guanidinobutyl)-1,2,4-oxadiazol-5-yl)-4-(3-((S)-1-carboxy-2-phenylethyl)ureido)butanoic acid] was 58%; that for `N=C(N)NCCC[C@H](NC(=O)N[C@@H](CCC(=O)O)c1nc([C@@H]2CCCN2)no1)C(=O)O` [Compound 8] was 20%.
For the compound `N=C(N)NCCC[C@H](NC(=O)N[C@@H](CCC(N)=O)c1nc([C@@H](N)CC(N)=O)no1)C(=O)O` [Compound 9], the activation at 10 µM stood at 38%.
As to `N=C(N)NCCC[C@H](NC(=O)N[C@@H](CCC(N)=O)C(=O)O)c1nc([C@@H](N)CCC(N)=O)no1` [Compound 12], the activation at 10 µM amounted to 44%.
The same measure, in the same setting: the value for `NCCCC[C@H](N)c1noc([C@H](CCC(=O)O)NC(=O)N[C@@H](Cc2cnc[nH]2)C(=O)O)n1` [Compound 13] was 49%; that for `NCc1noc([C@H](Cc2cnc[nH]2)NC(=O)N[C@@H](Cc2ccccc2)C(=O)O)n1` [Compound 14] was 47%.

The next assay concerns H929 cells. As to the kind of experiment: FACS based phagocytosis assay. The format is cell-based. The settings on record: NCI-H929, human macrophages, CFSE stained H929 cells, flow cytometry, normalized to positive control B6H12. The protocol: as §1
Monocytes were isolated from blood of healthy donor and cultured for 6-8 days using 10% RPMI (Roswell Park Memorial Institute) media and recombinant human M-CSF to differentiate into macrophages. Media was changed every alternate day. Simultaneously, H929 cells were cultured in 10% RPMI media with 50 μg/mL of betamercaptoethanol in tissue culture flask. On the day of phagocytosis adherent macrophages were serum starved for 2 hours in RPMI media. Simultaneously H929 cells were stained with 0.3 μM CFSE stain. After washing, 0.2 million CFSE stained H929 cells were incubated with anti-human CD47 or Mouse IgG1 K Isotype Control antibody or various conc of test item in serum free media for 30 min at 37° C. After 2 hours of serum starvation macrophages were dissociated with cell dissociation buffer and collected by gentle scraping and added at conc of 0.05 million per well into respective wells of the ultra-low attachment 96 well plate seeded with H929 cells. Phagocytosis was allowed for 2 hours. After 2 hours, cells were washed with PBS and stained with 1 μL of anti-human CD11b-APC antibody prepared in 100 μL of PBS for 30 min in 4° C. in dark. Cells were further washed and fixed in 100 μL of fixation buffer until acquired by Flow cytometry. The extent of phagocytosis of H929 cells by human macrophages was measured by acquiring the samples by Flow cytometry. Samples acquired by Flow cytometry were analysed by using FlowJo software. Each experimental condition was carried out in duplicate. Cells positive for FITC (CFSE) and CD11b-APC were considered as phagocytosed macrophages. Raw data of % phagocytosis by macrophages were obtained in the form of excel sheet from FlowJo. % phagocytosis from isotype control (background phagocytosis) was subtracted from % phagocytosis of macrophages treated with compound as well as other controls to get corrected phagocytosis values. Corrected phagocytosis values of compound treated samples were normalized with phagocytosis of positive control (B6H12) using the formula: % normalized phagocytosis=[(corrected % phagocytosis of compound)/(corrected phagocytosis of B6H12)*100]
`NCCCC[C@H](N)c1noc([C@H](CCC(N)=O)NC(=O)N2CCC[C@H]2C(=O)O)n1` [Compound 1, (((S)-4-amino-1-(3-((S)-1,5-diaminopentyl)-1,2,4-oxadiazol-5-yl)-4-oxobutyl)carbamoyl)-L-proline] had an activation at 10 µM of 45%.
`N=C(N)NCCC[C@H](N)c1noc([C@H](CCC(=O)O)NC(=O)N2CCCC2C(=O)O)n1` (stereo partly drawn) [Compound 2] registered an activation at 10 µM of 37%.
In turn, `N=C(N)NCCC[C@H](NC(=O)N1CCCC1C(=O)O)c1nc([C@@H](N)CCC(=O)O)no1` (stereo partly drawn) [Compound 3] returned an activation at 10 µM of 73%.
In turn, `N=C(N)NCCC[C@H](NC(=O)N1CCCC1C(=O)O)c1nc([C@@H](N)CCC(N)=O)no1` (stereo partly drawn) [Compound 5] registered an activation at 10 µM of 56%.
Same read-out and setting: then `N=C(N)NCCC[C@H](N)c1noc([C@H](CCC(=O)O)NC(=O)N[C@@H](Cc2ccccc2)C(=O)O)n1` [Compound 7, (S)-4-(3-((S)-1-amino-4-guanidinobutyl)-1,2,4-oxadiazol-5-yl)-4-(3-((S)-1-carboxy-2-phenylethyl)ureido)butanoic acid], with 38%.
In the case of `N=C(N)NCCC[C@H](NC(=O)N[C@@H](CCC(=O)O)c1nc([C@@H]2CCCN2)no1)C(=O)O` [Compound 8], the activation at 10 µM came out at 40%.
Turning to `N=C(N)NCCC[C@H](NC(=O)N[C@@H](Cc1ccccc1)C(=O)O)c1nc([C@@H](N)CCC(N)=O)no1` [Compound 10], the activation at 10 µM worked out at 28%.
Regarding `N=C(N)NCCC[C@H](NC(=O)N[C@@H](CCC(N)=O)C(=O)O)c1nc([C@@H](N)CCC(N)=O)no1` [Compound 12], the activation at 10 µM is 20%.
On to `NCCCC[C@H](N)c1noc([C@H](CCC(=O)O)NC(=O)N[C@@H](Cc2cnc[nH]2)C(=O)O)n1` [Compound 13], for which the activation at 10 µM came to 29%.
`NCc1noc([C@H](Cc2cnc[nH]2)NC(=O)N[C@@H](Cc2ccccc2)C(=O)O)n1` [Compound 14]: the activation at 10 µM stood at 26%.
For the compound `NCCCC[C@H](N)c1noc([C@H](CCC(=O)O)NC(=O)NCC(=O)O)n1` [Compound 15], the activation at 10 µM amounted to 62%.
Compound `N[C@@H](Cc1ccccc1)c1noc(CNC(=O)N2CCCC2C(=O)O)n1` (stereo partly drawn) [Compound 16] gave an activation at 10 µM of 27%.
For `N[C@@H](CCC(=O)O)c1noc(CNC(=O)N2CCCC2C(=O)O)n1` (stereo partly drawn) [Compound 17], the activation at 10 µM was 33%.
In turn, `N[C@@H](Cc1cnc[nH]1)c1noc([C@H](Cc2ccccc2)NC(=O)N2CCCC2C(=O)O)n1` (stereo partly drawn) [Compound 19] came in with an activation at 10 µM of 52%.
As to `NC(=O)CC[C@H](N)c1noc([C@H](CCC(=O)O)NC(=O)N2CCCC2C(=O)O)n1` (stereo partly drawn) [Compound 21], the activation at 10 µM was 13%.
Still for that read-out and setting: then `N[C@@H](CCC(=O)O)c1noc(CNC(=O)N[C@@H](Cc2cnc[nH]2)C(=O)O)n1` [Compound 22], with 33%; and `N=C(N)NCCC[C@H](NC(=O)N1CCCC1C(=O)O)c1nc([C@@H](N)CC(=O)O)no1` (stereo partly drawn) [Compound 23], with 60%; and `CCC(C)[C@H](N)c1noc([C@H](CCCNC(=N)N)NC(=O)N2CCCC2C(=O)O)n1` (stereo partly drawn) [Compound 29], with 26%.
Regarding `N=C(N)NCCC[C@H](NC(=O)N1CCCC1C(=O)O)c1nc([C@@H](N)Cc2c[nH]c3ccccc23)no1` (stereo partly drawn) [Compound 30], the activation at 10 µM worked out at 23%.
On to `N=C(N)NCCC[C@H](NC(=O)N1CCCC1C(=O)O)c1nc(CN)no1` (stereo partly drawn) [Compound 31], for which the activation at 10 µM was 58%.
The compound `N[C@@H](CCC(=O)O)c1noc([C@H](CCC(=O)O)NC(=O)N2CCCC2C(=O)O)n1` (stereo partly drawn) [Compound 32] had an activation at 10 µM of 46%.
Compound `N[C@@H](CCC(=O)O)c1noc([C@H](Cc2ccccc2)NC(=O)N2CCC[C@H]2C(=O)O)n1` [Compound 33] showed an activation at 10 µM of 31%.
Take `N[C@@H](CCC(=O)O)c1noc([C@H](CO)NC(=O)N2CCCC2C(=O)O)n1` (stereo partly drawn) [Compound 35]: the activation at 10 µM worked out at 35%.
`CCC(C)[C@H](NC(=O)N[C@@H](CCCNC(=N)N)c1nc([C@@H](N)CCC(=O)O)no1)C(=O)O` (stereo partly drawn) [Compound 37] showed an activation at 10 µM of 17%.
In turn, `COC(=O)CC[C@H](N)c1noc(C(CCCNC(=N)N)NC(=O)N2CCCC2C(=O)OC)n1` (stereo partly drawn) [Compound 39] yielded an activation at 10 µM of 23%.
The compound `COC(=O)C1CCCN1C(=O)NC(CCCNC(=N)N)c1nc([C@@H](N)CCC(=O)O)no1` (stereo partly drawn) [Compound 40] registered an activation at 10 µM of 27%.
Consider `NCCCC[C@H](NC(=O)NCc1nc([C@@H](N)CCC(N)=O)no1)C(=O)O` [Compound 41], for which the activation at 10 µM worked out at 31%.
`NCCCC[C@H](NC(=O)N[C@@H](CCC(N)=O)c1nc([C@@H](N)CC(N)=O)no1)C(=O)O` [Compound 43] came in with an activation at 10 µM of 43%.
In turn, `CC(C)C[C@H](NC(=O)N[C@@H](CCCNC(=N)N)c1nc([C@@H](N)CCC(=O)O)no1)C(=O)O` [Compound 44] came in with an activation at 10 µM of 20%.
Consider `N=C(N)NCCC[C@H](NC(=O)N[C@@H](Cc1c[nH]c2ccccc12)C(=O)O)c1nc([C@@H](N)CCC(=O)O)no1` [Compound 46], for which the activation at 10 µM came to 30%.
Same read-out and setting: then `N=C(N)NCCC[C@H](NC(=O)N[C@@H](CC(=O)O)C(=O)O)c1nc([C@@H](N)CCC(=O)O)no1` [Compound 47], with 18%; and `N=C(N)NCCC[C@H](NC(=O)NCC(=O)O)c1nc([C@@H](N)CCC(=O)O)no1` [Compound 48], with 29%.
Consider `NC(=O)CC[C@H](N)c1noc(CNC(=O)N[C@@H](CCC(=O)O)C(=O)O)n1` [Compound 50], for which the activation at 10 µM stood at 26%.
In turn, `N=C(N)NCCC[C@H](NC(=O)N[C@@H](CCC(=O)O)C(=O)O)c1nc([C@@H](N)CCC(=O)O)no1` [Compound 51] returned an activation at 10 µM of 24%.
